Assay results published in ChEMBL document CHEMBL5233249, “Recent advancements in the development of heterocyclic anti-inflammatory agents” (Eur J Med Chem, 2020).
pIC50: −log10 of the molar value. Values belong to the molecule of their own block, whether it stands above or below them.

Key:
Rattus norvegicus [1] = test: Anti-inflammatory activity against formalin-induced foot paw edema in PO dosed rat at 10 mg/kg assessed as inhibition of edema measured after 4 hr relative to control; type: functional
Rattus norvegicus [2] = test: Anti-inflammatory activity against Carrageenan-induced paw edema in PO dosed Wistar albino rat assessed as inhibition of edema measured after 3 hr relative to control; type: functional; parameters: scale not given: the % may be the effect or the level left
[3] = Anti-inflammatory activity assessed using bovine serum albumin/egg albumin proteins assessed as protein denaturation measured at 95 degC for 20 mins by measuring turbidity by UV-Vis spectrophotometer; type: functional
Erythrocyte = test: Anti-inflammatory activity in human red blood cells assessed as stabilization of cell membrane; type: functional, cell-based
Rattus norvegicus [4] = test: Anti-inflammatory activity in Carrageenan-induced rat paw edema in Wistar rat assessed as reduction in inhibition of edema measured after 4 hrs relative to control; type: functional; parameters: scale not given: the % may be the effect or the level left
Rattus norvegicus [5] = test: Anti-inflammatory activity in Carrageenan-induced paw edema in PO dosed rat model at 30 mg/kg measured after 4 hrs relative to control; type: functional
Mus musculus [6] = test: Anti-inflammatory activity against Carrageenan-induced paw edema in mouse model assessed as reduction of edema at 50 mg/kg measured after 4 hrs relative to control; type: functional; parameters: scale not given: the % may be the effect or the level left
THP-1 = test: Anti-inflammatory activity in human THP-1 cells assessed as inhibition in IL-1beta release at 30 uM relative to control; type: functional; parameters: scale not given: the % may be the effect or the level left
[7] = target: T1, Prostaglandin G/H synthase 1 (Ovis aries, UniProt P05979); test: Inhibition of ovine COX-1 at 1 uM
T1 sequence (P05979 whole entry): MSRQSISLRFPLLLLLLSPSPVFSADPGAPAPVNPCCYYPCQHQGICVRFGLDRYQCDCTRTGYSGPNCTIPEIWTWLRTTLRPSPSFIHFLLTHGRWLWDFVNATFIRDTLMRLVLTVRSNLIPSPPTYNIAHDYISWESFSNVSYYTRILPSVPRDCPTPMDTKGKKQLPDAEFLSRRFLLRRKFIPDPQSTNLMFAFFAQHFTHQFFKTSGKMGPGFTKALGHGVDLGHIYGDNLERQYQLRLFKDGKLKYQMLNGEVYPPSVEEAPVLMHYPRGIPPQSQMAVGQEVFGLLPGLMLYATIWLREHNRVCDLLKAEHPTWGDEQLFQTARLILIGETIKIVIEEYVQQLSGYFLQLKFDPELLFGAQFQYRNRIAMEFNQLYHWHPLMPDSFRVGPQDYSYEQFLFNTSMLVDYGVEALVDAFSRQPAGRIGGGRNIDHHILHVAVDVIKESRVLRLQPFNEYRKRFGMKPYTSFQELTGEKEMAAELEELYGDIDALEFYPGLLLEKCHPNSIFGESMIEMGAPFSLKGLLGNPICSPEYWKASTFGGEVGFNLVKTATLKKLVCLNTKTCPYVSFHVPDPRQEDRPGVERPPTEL

[8] = target: T2, Prostaglandin G/H synthase 2 (Homo sapiens, UniProt P35354); test: Inhibition of human recombinant COX-2 at 1 uM
T2 sequence (P35354 whole entry): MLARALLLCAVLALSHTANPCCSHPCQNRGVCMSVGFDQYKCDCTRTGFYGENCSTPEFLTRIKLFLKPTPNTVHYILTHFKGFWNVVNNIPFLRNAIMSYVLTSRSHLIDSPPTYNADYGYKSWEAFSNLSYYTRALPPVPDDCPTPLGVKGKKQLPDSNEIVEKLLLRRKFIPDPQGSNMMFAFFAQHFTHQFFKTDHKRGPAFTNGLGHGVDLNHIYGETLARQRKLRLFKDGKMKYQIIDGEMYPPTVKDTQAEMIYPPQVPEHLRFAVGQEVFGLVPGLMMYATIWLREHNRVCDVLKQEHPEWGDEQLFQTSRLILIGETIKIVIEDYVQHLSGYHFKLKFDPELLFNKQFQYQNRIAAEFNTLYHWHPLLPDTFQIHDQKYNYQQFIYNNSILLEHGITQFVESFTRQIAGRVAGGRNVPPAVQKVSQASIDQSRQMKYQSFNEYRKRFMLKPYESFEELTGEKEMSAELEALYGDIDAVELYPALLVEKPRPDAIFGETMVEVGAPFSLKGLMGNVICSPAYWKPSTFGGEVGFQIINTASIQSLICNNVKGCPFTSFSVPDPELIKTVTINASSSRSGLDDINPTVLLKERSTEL

[9] = target: T3, Polyunsaturated fatty acid lipoxygenase ALOX15 (Homo sapiens, UniProt P16050); test: Inhibition of LOX (unknown origin) at 1 uM
T3 sequence (P16050 whole entry): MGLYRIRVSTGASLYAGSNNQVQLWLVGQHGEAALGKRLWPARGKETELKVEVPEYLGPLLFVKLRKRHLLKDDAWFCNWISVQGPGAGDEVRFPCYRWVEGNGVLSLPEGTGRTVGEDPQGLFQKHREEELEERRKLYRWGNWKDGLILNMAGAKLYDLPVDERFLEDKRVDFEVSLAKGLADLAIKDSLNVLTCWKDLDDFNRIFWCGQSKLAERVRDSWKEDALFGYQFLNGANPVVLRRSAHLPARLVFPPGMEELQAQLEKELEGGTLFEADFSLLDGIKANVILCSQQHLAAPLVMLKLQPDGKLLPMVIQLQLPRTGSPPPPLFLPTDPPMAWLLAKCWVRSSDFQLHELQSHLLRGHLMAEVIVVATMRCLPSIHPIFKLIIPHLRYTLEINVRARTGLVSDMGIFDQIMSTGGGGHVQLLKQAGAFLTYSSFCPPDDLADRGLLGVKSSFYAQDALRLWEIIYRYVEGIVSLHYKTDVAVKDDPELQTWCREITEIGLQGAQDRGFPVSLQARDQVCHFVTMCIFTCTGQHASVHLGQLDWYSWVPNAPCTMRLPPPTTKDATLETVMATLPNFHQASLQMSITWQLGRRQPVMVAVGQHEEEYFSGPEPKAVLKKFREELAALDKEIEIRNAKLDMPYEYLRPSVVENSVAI

RAW264.7 [10] = test: Anti-inflammatory activity in mouse RAW264.7 cells assessed as inhibition of LPS-induced IL-6 production incubated for 1 hr by EIA relative to control; type: functional
RAW264.7 [11] = test: Anti-inflammatory activity in mouse RAW264.7 cells assessed as inhibition of LPS-induced TNFalpha production incubated for 1 hr by EIA relative to control; type: functional
Mus musculus [12] = test: Anti-inflammatory activity against Carrageenan-induced paw edema in mouse model assessed as reduction in volume of edema at 100 mg/kg measured after 24 hrs relative to control; type: functional; parameters: scale not given: the % may be the effect or the level left

- IC50 [3]: 54.65 µg/mL
- EC50 (Erythrocyte): 11.7 µg/mL
Compound: O=C([O-])Cc1ccccc1Nc1c(Cl)cccc1Cl.[Na+] [DICLOFENAC SODIUM]
- inhibition in vivo at 10 mg/kg (Rattus norvegicus [1]): 92.9%
- Activity (Rattus norvegicus [2]): 60.82%
- Activity (Rattus norvegicus [4]): 78.05%
- inhibition in vivo at 30 mg/kg (Rattus norvegicus [5]): 93%
- Activity (Mus musculus [6]): 76.25%

Compound: c1cc2[nH]c(-c3cscn3)nc2cn1
- Activity (THP-1): 40%

- pIC50 [7]: 6.01
- pIC50 [8]: 4.94
- pIC50 [9]: 5.02
Compound: COc1ccc(-c2nc3c(C(N)=O)cccc3[nH]2)cc1
- inhibition (INH) (RAW264.7 [10]): 91%
- inhibition (INH) (RAW264.7 [11]): 91%

Compound: c1ccc(N2CCN(c3cncc(-c4nc5ccccc5[nH]4)n3)CC2)cc1
- Activity (Mus musculus [12]): 54.31%
